Reference: patent US9629822B2, “Flavonoid based antiviral targets” (UNIVERSITY OF CENTRAL FLORIDA RESEARCH FOUNDATION, INC., priority 2012, dated 2017)
Entries after “also recorded” stand apart in the source; their conditions may differ. Like-named read-outs stand apart in the source and are kept apart here.

Columns and labels:
[1] = test system: mock transfected 293T HEK cells; assay: PathDetect Elk1 luminescence in mock transfected (empty pcDNA3 vector) 293T HEK cells, off-target effect; format: cell-based, human
Protocol: As a control, the empty pcDNA3 plasmid vector and the components of PathDetect system were also used for mock transfection of 293T HEK cells. Controls containing 1% DMSO were run in parallel. The relative luminescence results found with mock transfected 293T HEK cells treated with 10 μM drug and the untreated 1% DMSO control were compared via the following Equation 1. % Effect on mock cells=(100%×(mock cell luminescence/DMSO control luminescence))−100% Equation (1)
This equation was derived in order to assess the net effect each compound had on non-US28 containing HEK cells transfected via the same protocol. These control experiments were critical as they provided a method to address off target effects such as compound toxicity, which could give rise to false positives in the PathDetect assay.
Compounds, which had no off-target effects, gave nearly identical luminescence values in both the mock cells and the 1% DMSO control (i.e., a mock cell luminescence/DMSO control luminescence ratio of 1) and a net effect of 0% via Equation 1 (e.g., 9j: 0% in Table 1). In contrast, compounds that were stimulatory to the treated HEK cells gave higher mock cell luminescence than the DMSO control, a ratio >1, and a net positive value in Equation 1 for the % effect on mock cells (e.g., 8f: 290%). On the other hand, compounds that were intrinsically toxic gave lower luminescence in the treated mock cells than the DMSO control, a ratio below 1, and a net negative value for the % effect on mock cells (e.g., 8d: ˜42%).
(§1) The efficacy of each compound on the US28 receptor was investigated in luciferase based reporter gene assay PathDetect trans Elk1 (Agilent, Stratagene)^23 as described previously.^13 Briefly, the human embryonic kidney (HEK) 293T cells were transiently-transfected with 0.1 μg Elk1, 5 μg Luc, and 5 μg of US28 vector or empty pcDNA3 vector (mock cells). Five hours after transfection, the cells were washed with DMEM containing 1% FBS, harvested, seeded in a white half-area 96-well plate (20,000 cells/well) and incubated with the indicated concentrations of test compounds. The incubation buffer consisted of DMEM, 1% FBS, 2 mM L-glutamine, 1% penicillin-streptomycin and 1% DMSO. The cells were incubated at 37° C. in the humid atmosphere with 5% CO2 for an additional 20-24 hours. The luciferase substrate BrightGlo (Promega) was used according to the manufacturer's instruction. The luminescence intensity was acquired using microplate reader Victor3V (Perkin-Elmer). The basal luminescence of mock transfected cells was approximately 500 RLU and the basal luminescence of US28-transfected cells was 4-5-fold higher (2000-2500 RLU). As the inhibitors gave differential responses in terms of their ability to reduce US 28 mediated signaling, their relative EC50 values were determined by dosing the US-28 transfected HEK cells with increasing concentrations of each compound. In this case, the EC50 value is the concentration of the compound needed to provoke a response halfway between the compound's maximal response (change in luminescence) and the no-compound control in the same US-28 transfected cell line. A plot of relative luminescence versus log of the compound concentration provided a dose-response curve from which the % efficacy was derived via non-linear regression methods using the algorithms in PRISM 5.0 (GraphPad Software, San Diego, Calif.).

US28 receptor = target: T1, US28 receptor (Human cytomegalovirus, UniProt P69332); assay: PathDetect trans Elk1 luciferase reporter gene assay in US28-transfected 293T HEK cells; format: cell-based, Human Cytomegalovirus (HCMV); details: for type of activity on the US28 receptor (agonist / inverse agonist / none), in words: Elk1 reporter, US28-transfected HEK cells; for Efficacy(%): maximum intrinsic activity from dose-response curve; for Efficacy(%) / Emax: negative = inverse agonism; for Emax: read-out: Efficacy(%), maximum intrinsic activity from dose-response curve
T1 construct: expressed in transfected cells; host or cells: HEK 293T cells, transiently transfected
Excerpt: Having generated a homologous series of chalcones and flavones, their ability to interact with the US28 receptor in human embryonic kidney (HEK) cells was investigated using an Elk-1 gene reporter assay (FIG. 2). HEK cells were transfected with either an empty vector (i.e., mock cells) or with a vector carrying US 28. These matched HEK cells provided a means to evaluate off-target effects as well as innate drug toxicity. As many of the flavonoid drugs were not water-soluble, all drug stock solutions were made in 100% dimethylsulfoxide (DMSO). The final DMSO concentration for each cell-based experiment, however, was 1% DMSO. To account for the presence of DMSO, 1% DMSO controls were run in parallel. […] values of the homologous series were also determined in Chinese hamster ovary (CHO) cells in order to assess the relative toxicities of each member of the series in a different cell line (see Table 1).
Interaction with the US28 receptor was measured by a decrease in luminescence using a firefly (Photinus pyralis) luciferase-based PathDetect Elk1 gene reporter assay (FIG. 2).^23,24 This assay assessed the modulation of US28-mediated activation of mitogen-activated protein kinase (MAPK) signaling pathways (results are shown in Table 1). […] Such compounds which reduce MAPK signaling will have direct utility in the treatment of proliferative disorders including but not limited cancer.
After transfection the US28 is expressed and activates MAPK. The MAPK phosphorylates the activator domain of the GAL4dbd/Elk1 fusion protein, and causes its dimerization. The dimer then binds to the GAL4 UAS region of the reporter gene and allows for luciferase transcription. The luciferase mRNA is then translated and the luciferase protein is detected via luminescence by the use of the Bright-Glo reagent.
as §1

HIV-1 BaL = assay: Anti-HIV assay (luciferase, HIV-1 BaL infection); format: cell-based
Protocol: Assays were performed below in accordance with the procedures set forth in The Journal of Immunology, 2006, 176, pp. 6900-905; AIDS Research and Human Retroviruses, 2004, 20:11, pp. 1157-1665.^32,33 Cells were treated with 2 ng/mL p24 of HIV-1 BaL administered; MOI approx 0.02 (see refs 32, 33). Cells were treated with 2 ng/mL p24 of HIV-1 BaL administered; MOI approx 0.02 (see refs 32, 33).

CHO cells = assay: CHO cell toxicity, MTS assay, 48 h; format: cell-based, Chinese hamster; details: 37° C., MTS reagent; for IC50: Cricetulus griseus, CHO, read-out: CHO 48 h IC50 value
Protocol: In each case, the chalcone system 8 was more toxic than the corresponding ring-closed system, 9.
The CHO assay was conducted to assess the general toxicity of each flavonoid drug. Briefly, cell growth was assayed in sterile 96-well microtiter plates (Costar 3599, Corning, N.Y., USA) in the presence of each drug. Experiments were conducted in triplicate. CHO cells were plated at 10,000 cells/mL. Drug solutions were prepared in 100% DMSO and dosed so that the final DMSO concentration was <1%. For example, 1 μL of drug solution was added to the CHO cells plated in each well in 100 μL of media. Drug additions occurred after an initial overnight incubation of CHO cells in each well. After drug was added, the cells were incubated in 5% CO2 for 48 h at 37° C. The MTS reagent (Promega Cell Titer 96 Aqueous non-radioactive cell proliferation reagent) was added (20 μL) and the CHO cells were incubated for an additional 4h and then absorbance at 490 nm was measured on a BioTek Synergy MX plate reader. […] IC50 values were determined from the corresponding plot of relative absorbance at 490 nm vs drug concentration.

[2] = TZMbI assay for cell safety (cell viability and growth, CytoTox Glo); details: human, TZMbI cells, read-out: % decrease in viability compared to 0.1% DMSO vehicle based on viable cell luminescence
Protocol: Assays were performed below in accordance with the procedures set forth in The Journal of Immunology, 2006, 176, pp. 6900-905; AIDS Research and Human Retroviruses, 2004, 20:11, pp. 1157-1665.^32,33 TZMbI assays for cell safety were performed to identify potential anti-viral compounds. TZMbI assays for cell safety were performed to identify potential anti-viral compounds per the methods.

[3] = pEC50 ± SEM, 293T HEK cells transiently expressing US28, Elk1 reporter
[4] = 10 μM, Experiment 1B, 2 ng/mL p24 HIV-1 BaL
[5] = Human immunodeficiency virus 1, BAL, 10 μM, Experiment 1B, 2 ng/mL p24 HIV-1 BaL
[6] = EC50 (μM), 293T HEK cells transiently expressing US28, Elk1 reporter, NE = no effect when tested at 10 μM of compound

T1 sequence (P69332 whole entry): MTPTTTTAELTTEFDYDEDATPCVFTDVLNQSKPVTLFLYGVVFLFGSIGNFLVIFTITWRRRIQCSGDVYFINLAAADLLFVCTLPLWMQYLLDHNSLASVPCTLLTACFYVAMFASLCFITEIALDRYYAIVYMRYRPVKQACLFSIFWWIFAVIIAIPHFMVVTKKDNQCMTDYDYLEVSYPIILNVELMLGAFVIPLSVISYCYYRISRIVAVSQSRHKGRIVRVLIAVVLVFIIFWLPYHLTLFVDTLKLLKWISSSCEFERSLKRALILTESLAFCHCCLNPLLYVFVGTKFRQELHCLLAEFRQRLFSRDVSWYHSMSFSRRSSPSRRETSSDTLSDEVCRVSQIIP

| Structure (SMILES) | type of activity on the US28 receptor (agonist / inverse agonist / none), in words (US28 receptor) | Efficacy(%) (US28 receptor) | EC50 (US28 receptor; [3]) [µM] | Emax (US28 receptor) [%] | RLU (relative luciferase units) (HIV-1 BaL; [4]) [RLU] | inhibition at 10 µM (HIV-1 BaL; [5]) [%] | IC50 (CHO cells) [µM] | cytotoxicity at 10 μM ([2]; Experiment 1A) [%] | EC50 (US28 receptor; [6]) [µM] | RLU (relative luciferase units) (HIV-1 BaL; 10 μM, Experiment 2B) [RLU] | cytotoxicity at 10 μM ([2]; Experiment 2A) [%] | other results |
| --- | --- | --- | --- | --- | --- | --- | --- | --- | --- | --- | --- | --- |
| COc1ccccc1/C=C/C(=O)c1ccccc1O [Compound 8a, (E)-1-(2-Hydroxyphenyl)-3-(2-methoxyphenyl)prop-2-en-1-one] | agonism; also recorded: agonist activity | 67 | 1.45 | 67 | 1218.5 | -28.8 | 25.5 ± 2.7 | 18.7 |  |  |  | activation at 10 µM ([1]; Homo sapiens, 10 μM vs 1% DMSO control, Equation 1, read-out: Effect(%) on mock cells with each drug at 10 μM): 8% |
| COc1ccc(Br)cc1/C=C/C(=O)c1ccccc1O [Compound 8b, (E)-3-(5-Bromo-2-methoxyphenyl)-1-(2-hydroxyphenyl)prop-2-en-1-one] |  | ~44 |  | ~44 | 202.3 | 78.6 | 8.7 ± 0.3 | 64.2 | 7.8 |  |  |  |
| COc1ccccc1/C=C/C(=O)c1c(O)cccc1OCc1ccccc1 [Compound 8k, (E)-1-(2-(Benzyloxy)-6-hydroxyphenyl)-3-(2-methoxyphenyl)prop-2-en-1-one] |  |  |  |  |  |  |  |  |  |  |  | toxicity at 10 μM in HEK cells, in words ([1]; 10 μM): very toxic; Effect(%) on mock cells with each drug at 10 μM ([1]; 10 μM vs 1% DMSO control, Equation 1): Toxic; EC50 (μM) (US28 receptor; 293T HEK cells transiently expressing US28, Elk1 reporter, NE = no effect when tested at 10 μM of compound): Toxic |
| COc1ccccc1-c1cc(=O)c2c(OCc3ccccc3)cccc2o1 [Compound 11a, 5-(Benzyloxy)-2-(2-methoxyphenyl)-4H-chromen-4-one] |  |  |  |  |  |  | 17.5 ± 1.9 |  | 7.3 |  |  |  |
| COc1ccc(Br)cc1-c1cc(=O)c2c(OCc3ccccc3)cccc2o1 [Compound 11b, 5-(Benzyloxy)-2-(5-bromo-2-methoxyphenyl)-4H-chromen-4-one] | strong inverse agonism activity; also recorded: full inverse agonist | −89 | 3.47 | -89 | 781.6 | 16.5 | 96.6 | 6.4 |  | 34.09 | -5.05 | RLU (relative luciferase units) (HIV-1 BaL; 5 μM, Experiment 2B): 24.27 RLU; RLU (relative luciferase units) (HIV-1 BaL; 20 μM, Experiment 2B): 40.47 RLU; RLU (relative luciferase units) (HIV-1 BaL; 40 μM, Experiment 2B): 49.22 RLU; RLU (relative luciferase units) (HIV-1 BaL; 80 μM, Experiment 2B): 62.68 RLU; inhibition at 5 µM (HIV-1 BaL; Human immunodeficiency virus 1, BAL, 5 μM, Experiment 2B): -6.17%; inhibition at 10 µM (HIV-1 BaL; Human immunodeficiency virus 1, BAL, 10 μM, Experiment 2B): -15.1%; inhibition at 20 µM (HIV-1 BaL; Human immunodeficiency virus 1, BAL, 20 μM, Experiment 2B): -18.1%; inhibition at 40 µM (HIV-1 BaL; Human immunodeficiency virus 1, BAL, 40 μM, Experiment 2B): -29.2%; inhibition at 80 µM (HIV-1 BaL; Human immunodeficiency virus 1, BAL, 80 μM, Experiment 2B): -1.51%; CHO 48 h IC50 value (μM) (CHO cells): high CHO IC50 value; also recorded: essentially non-toxic; also recorded: not toxic; cytotoxicity at 5 μM ([2]; 5 μM, Experiment 2A): -6.17%; cytotoxicity at 20 μM ([2]; 20 μM, Experiment 2A): -18.1%; cytotoxicity at 40 μM ([2]; 40 μM, Experiment 2A): -29.2%; cytotoxicity at 80 μM ([2]; 80 μM, Experiment 2A): -1.51% |
| CC[C@H](C)[C@@H]1NC(=O)CNC(=O)[C@H](CCCCN)NC(=O)CNC(=O)[C@@H]2CSSC[C@H](NC1=O)C(=O)N[C@@H](CCCNC(=N)N)C(=O)N[C@H]1CSSC[C@H](NC(=O)[C@H](CCCNC(=N)N)NC(=O)[C@@H]3CSSC[C@H](NC(=O)[C@H]([C@@H](C)CC)NC1=O)C(=O)NCC(=O)N[C@@H](CCCNC(=N)N)C(=O)NCC(=O)N[C@@H]([C@@H](C)CC)C(=O)N3)C(=O)N[C@@H]([C@@H](C)CC)C(=O)N2 [RC-101, reference compound] |  |  |  |  |  |  |  |  |  | 1.67 | -1.43 | Mean % Inhibition of Infection (HIV-1 BaL; 10 μM, Experiment 2B): 99.38% |
